{"source": "patent US20260315446A1", "about": "“ANTIFUNGAL COMPOUNDS AND USES THEREOF” (priority 2023, published 2026)", "key": {"[1]": {"settings": "in vivo; cited from earlier work"}, "[2]": {"tested_on": "C. neoformans H99", "assay": "Intranasal model of pulmonary cryptococcosis, lung fungal burden (Example 1)", "type": "in vivo, Cryptococcus neoformans in A/J mice", "settings": "day 14; JH-FK-05 60 mg/kg, fluconazole 12 mg/kg, i.p. daily", "protocol": "First, in the intranasal model, animals were anesthetized and infected with 10^5 cells of wild-type H99 C. neoformans via instillation in the animal's nares. These animals were monitored for 14 days and then sacrificed. This model tests the efficacy of JH-FK-05 to treat a pulmonary infection, which is the most common manifestation of early-stage cryptococcosis in patients. […] In both models, animals were treated once daily via i.p. injection beginning 3 h after infection with either vehicle, 60 mg/kg JH-FK-05, 12 mg/kg fluconazole, or a combination of the two monotherapies.\nFemale A/J mice (3 to 4 weeks old; Jackson Laboratory) were anesthetized utilizing an isoflurane chamber. […] After 14 days, animals were either sacrificed for fungal burden analysis or monitored for health and survival until reaching a humane endpoint.\nMice were euthanized by CO2 inhalation at the predetermined experimental endpoint. […] A 100-μL aliquot of each dilution was plated on antibiotic plates (YPD, 50 μg/mL ampicillin, and 30 g/mL chloramphenicol), incubated for 48 to 72 h at 30° C., and assessed for CFU. […]"}, "[3]": {"tested_on": "C. neoformans H99", "assay": "Intravenous model of disseminated cryptococcosis, brain fungal burden (Example 1)", "type": "in vivo, Cryptococcus neoformans in mice", "excerpt": "The high in vitro antifungal activity of JH-FK-05 presented promising evidence that it might effectively reduce fungal burden in the context of murine infection. Two models of C. neoformans infection were employed to test this hypothesis (FIG. 7A). First, in the intranasal model, animals were anesthetized and infected with 10^5 cells of wild-type H99 C. neoformans via instillation in the animal's nares. These animals were monitored for 14 days and then sacrificed. This model tests the efficacy of JH-FK-05 to treat a pulmonary infection, which is the most common manifestation of early-stage cryptococcosis in patients. Second, the intravenous (i.v.) model approximates the disseminated stage of disease. […]\nWild-type H99 C. neoformans cells were grown overnight at 30° C. in a roller drum in yeast extract-peptone-dextrose (YPD) medium. […] H99 cells were counted with a hemacytometer and diluted to 2×10^6 cells/mL in PBS for the pulmonary model and 2×10^5 cells/mL in PBS for the disseminated model. […]\nMice were euthanized by CO2 inhalation at the predetermined experimental endpoint. […] A 100-μL aliquot of each dilution was plated on antibiotic plates (YPD, 50 μg/mL ampicillin, and 30 µg/mL chloramphenicol), incubated for 48 to 72 h at 30° C., and assessed for CFU. […] Statistical significance was calculated using an ordinary one-way analysis of variance (ANOVA) with Tukey's multiple-comparison test."}, "[4]": {"tested_on": "C. neoformans strain H99", "assay": "Murine cryptococcal infection, lung fungal burden (Example 3)", "type": "in vivo, Cryptococcus neoformans in A/J mice", "settings": "once daily; fluconazole 12 mg/kg, JH-FK-08 40 mg/kg", "method": "In vivo antifungal activity and therapeutic benefit were assayed by investigating the impact of the FK520 analog on organ fungal burden during cryptococcosis. Specifically, the in vivo efficacy of JH-FK-08 on fungal burden was assessed using A/J female mice. Immunodeficient A/J mice were selected in part due to their defect in complement component five and their susceptibility to cryptococcal infection. Treatment groups included vehicle of 10% Kolliphor: ethanol (1:1) in phosphate-buffered saline (PBS), […], or the fluconazole and JH-FK-08 combination, […] infection. […] Mice were intranasally infected with C. neoformans strain H99, and fungal burden in the lung, spleen, and brain was assessed after 14 days of treatment.\n(§1) C. neoformans inoculum was prepared by growing a 5-mL overnight YPD culture spinning in a tissue culture roller drum at 30° C. Cells were pelleted by centrifugation and washed in sterile PBS three times. Cell density was determined by hemocytometer, and cells were diluted to 2×10^6 cells/mL. Mice (10 to 20 g) were infected with 10^5 cells of C. neoformans H99. For inhalation infection, animals were anesthetized with isoflurane before 50 μL of inoculum was pipetted onto the upright nasal passages of each animal. Following inhalation of the inoculum, animals were monitored for post anesthesia recovery. Treatment of animals began 4 hours post infection and was continued for 14 days. Fungal burden was assessed 24 h after the final dose.\nFor survival curve analysis, animals were monitored until reaching defined humane end points, including social isolation, hunched posture, weight loss, lack of grooming, and labored breathing, and were then euthanized via CO2 inhalation. […] One hundred microliters of each dilution was plated on YPD plates supplemented with YPD 50 μg/mL ampicillin and 30 μg/mL chloramphenicol, incubated at 30° C. for 2 days, and assessed for colony-forming units. CFU per organ weight was calculated and plotted using GraphPad Prism 9."}, "[5]": {"tested_on": "C. neoformans strain H99", "assay": "Histopathological analysis of lung tissue", "type": "in vivo, Cryptococcus neoformans in A/J mice", "settings": "infected lung, PAS and H&E staining"}, "[6]": {"tested_on": "C. neoformans strain H99", "assay": "Murine cryptococcal infection, spleen fungal burden (Example 3)", "type": "in vivo, Cryptococcus neoformans in A/J mice", "settings": "14 days; fluconazole 6 mg/kg, JH-FK-08 40 mg/kg, i.p. twice per day", "method": "In vivo antifungal activity and therapeutic benefit were assayed by investigating the impact of the FK520 analog on organ fungal burden during cryptococcosis. Specifically, the in vivo efficacy of JH-FK-08 on fungal burden was assessed using A/J female mice. Immunodeficient A/J mice were selected in part due to their defect in complement component five and their susceptibility to cryptococcal infection. Treatment groups included vehicle of 10% Kolliphor: ethanol (1:1) in phosphate-buffered saline (PBS), 6 mg/kg fluconazole, 40 mg/kg JH-FK-08, or the fluconazole and JH-FK-08 combination, all given via intraperitoneal (i.p.) injection twice per day beginning at 4 hours post infection. […] Mice were intranasally infected with C. neoformans strain H99, and fungal burden in the lung, spleen, and brain was assessed after 14 days of treatment.\nas §1, with “For inhalation infection, animals were anesthetized with isoflurane before 50 μL of inoculum was pipetted onto the upright nasal passages of each animal.” left out, “Treatment of animals began 4 hours post infection and was continued for 14 days.” left out, “dose. […]” for “dose.”"}}, "data": [{"molecule": "C=CCC1C=C(C)CC(C)CC(OC)C2OC(O)(C(=O)C(=O)N3CCCCC3C(=O)OC(C(C)=CC3CCC(O)C(OC)C3)C(C)C(O)CC1=O)C(C)CC2OC", "note": "(stereo not shown) [FK506, reference compound]", "values": [{"measurement": "blood brain barrier crossing", "setting": "[1]", "result": "known to cross the blood brain barrier"}]}, {"molecule": "CC[C@@H]1/C=C(\\C)C[C@H](C)C[C@H](OC)[C@H]2O[C@@](O)(C(=O)C(=O)N3CCCC[C@H]3C(=O)O[C@H](/C(C)=C/[C@@H]3CC[C@@H](O)[C@H](OC)C3)[C@H](C)[C@@H](O)C/C1=N/NC(C)=O)[C@H](C)C[C@@H]2OC", "note": "[JH-FK-05]", "values": [{"measurement": "reduction of lung fungal burden", "setting": "[2]", "result": "~10", "unit": "fold"}, {"measurement": "reduction of brain fungal burden", "setting": "[3]; day 7, JH-FK-05 60 mg/kg, fluconazole 12 mg/kg, i.p. daily", "result": 2, "unit": "fold"}, {"measurement": "blood-brain barrier crossing", "setting": "[3]; inferred from brain fungal burden", "result": "can cross the blood-brain barrier"}]}, {"molecule": "CC[C@@H]1/C=C(\\C)C[C@H](C)C[C@H](OC)[C@H]2O[C@@](O)(C(=O)C(=O)N3CCCC[C@H]3C(=O)O[C@H](/C(C)=C/C3CC[C@@H](O)[C@H](OC)C3)[C@H](C)[C@@H](O)C/C1=N/NC(=O)OC)[C@H](C)C[C@@H]2OC", "note": "(stereo partly shown) [JH-FK-08]", "values": [{"measurement": "lung fungal burden reduction", "setting": "[4]", "result": "limited efficacy in reducing lung fungal burden"}, {"measurement": "inflammatory response in lung tissue", "setting": "[5]", "result": "expected granulomatous inflammatory response admixed with mature lymphocytes and neutrophils"}, {"measurement": "spleen fungal burden", "setting": "[6]", "result": "no detectable fungal burden"}]}]}
